Where “and” joins values, the source holds several entries; their conditions need not be identical. Identical values can stand only once. Toxic doses and inconclusive results are not listed. Cut-off read from the data, not from the text of the source: active = T/C of 150% or more; inactive = T/C below 125%.
Tested on: L1210 leukemia ip in BDF1 mice, survival T/C
Assay: NCI In Vivo Anticancer Drug Screen. Data for tumor model L1210 Leukemia (intraperitoneal) in B6D2F1 (BDF1) mice
Conditions: higher = longer survival
Method in brief: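 Tumor was transplanted into mice, which were then dosed with test compound or vehicle alone. Survival was recorded for each group, and the treated figure was expressed relative to the control figure.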

[1] = endpoint: mean survival time, dose: 100.0 mg/kg/injection, schedule: Q01DX001 (ip), vehicle: saline
[2] = endpoint: mean survival time, dose: 200.0 mg/kg/injection, schedule: Q01DX001 (ip), vehicle: saline
[3] = endpoint: mean survival time, dose: 400.0 mg/kg/injection, schedule: Q01DX001 (ip), vehicle: saline
[4] = endpoint: mean survival time, dose: 100.0 mg/kg/injection, schedule: Q01DX001 (ip), vehicle: carboxymethylcellulose (CMC)
[5] = endpoint: mean survival time, dose: 200.0 mg/kg/injection, schedule: Q01DX001 (ip), vehicle: carboxymethylcellulose (CMC)
[6] = endpoint: mean survival time, dose: 100.0 mg/kg/injection, schedule: Q01DX Z (ip), vehicle: carboxymethylcellulose (CMC)
[7] = endpoint: mean survival time, dose: 50.0 mg/kg/injection, schedule: Q01DX001 (ip), vehicle: saline
[8] = endpoint: mean survival time, dose: 100.0 mg/kg/injection, schedule: Q01DX009 (ip), vehicle: saline with Tween-80
[9] = endpoint: mean survival time, dose: 200.0 mg/kg/injection, schedule: Q01DX009 (ip), vehicle: saline with Tween-80
[10] = endpoint: mean survival time, dose: 100.0 mg/kg/injection, schedule: Q01DX009 (ip), vehicle: saline
[11] = endpoint: mean survival time, dose: 100.0 mg/kg/injection, schedule: Q04DX003 (ip), vehicle: Klucel (hydroxypropylcellulose) (HPC)
[12] = endpoint: mean survival time, dose: 200.0 mg/kg/injection, schedule: Q04DX003 (ip), vehicle: Klucel (hydroxypropylcellulose) (HPC)

Measured: T/C

CCCCCCCCCCCCCCCCCC[n+]1cccc(C#N)c1
inactive: endpoint: mean survival time, dose: 5.0 mg/kg/injection, schedule: Q01DX009 (ip), vehicle: saline 98 % of control | endpoint: mean survival time, dose: 10.0 mg/kg/injection, schedule: Q01DX001 (ip), vehicle: saline 93 % of control | endpoint: mean survival time, dose: 10.0 mg/kg/injection, schedule: Q01DX009 (ip), vehicle: saline 92 % of control | endpoint: mean survival time, dose: 10.0 mg/kg/injection, schedule: Q04DX003 (ip), vehicle: saline 105 % of control | endpoint: mean survival time, dose: 20.0 mg/kg/injection, schedule: Q01DX001 (ip), vehicle: saline 91 % of control | endpoint: mean survival time, dose: 20.0 mg/kg/injection, schedule: Q04DX003 (ip), vehicle: saline 97 % of control | endpoint: mean survival time, dose: 40.0 mg/kg/injection, schedule: Q01DX001 (ip), vehicle: saline 91 % of control | endpoint: mean survival time, dose: 40.0 mg/kg/injection, schedule: Q04DX003 (ip), vehicle: saline 114 % of control

CCCC/C(I)=C\S(=O)(=O)c1ccc(C)cc1
inactive: [1] 113 % of control | [2] 86 % of control | [3] 96 % of control

O=C1c2cc(Br)cc(Br)c2NCCC1(Br)Br
inactive: [4] 91 % of control | [5] 91 % of control | endpoint: mean survival time, dose: 400.0 mg/kg/injection, schedule: Q01DX001 (ip), vehicle: carboxymethylcellulose (CMC) 94 % of control

CNC(=O)N(C)N=O
active: endpoint: mean survival time, dose: 75.0 mg/kg/injection, schedule: Q01DX Z (ip), vehicle: carboxymethylcellulose (CMC) 157 % of control and 168 % of control | [6] 155 % of control
inactive: endpoint: mean survival time, dose: 10.0 mg/kg/injection, schedule: Q01DX Z (ip), vehicle: carboxymethylcellulose (CMC) 92 % of control | endpoint: mean survival time, dose: 125.0 mg/kg/injection, schedule: Q01DX Z (ip), vehicle: carboxymethylcellulose (CMC) 101 % of control

Nc1nc(N)c(C=O)c(Nc2ccc(I)cc2)n1
inactive: [7] 100 % of control | [1] 100 % of control | [2] 123 % of control | [3] 117 % of control

CC(=O)c1cc(Cl)ccc1O
inactive: endpoint: mean survival time, dose: 100.0 mg/kg/injection, schedule: Q01DX001 (ip), vehicle: Klucel (hydroxypropylcellulose) (HPC) 104 % of control | endpoint: mean survival time, dose: 100.0 mg/kg/injection, schedule: Q04DX002 (ip), vehicle: Klucel (hydroxypropylcellulose) (HPC) 100 % of control | endpoint: mean survival time, dose: 200.0 mg/kg/injection, schedule: Q01DX001 (ip), vehicle: Klucel (hydroxypropylcellulose) (HPC) 106 % of control | endpoint: mean survival time, dose: 200.0 mg/kg/injection, schedule: Q04DX002 (ip), vehicle: Klucel (hydroxypropylcellulose) (HPC) 96 % of control | endpoint: mean survival time, dose: 400.0 mg/kg/injection, schedule: Q01DX001 (ip), vehicle: Klucel (hydroxypropylcellulose) (HPC) 97 % of control | endpoint: mean survival time, dose: 400.0 mg/kg/injection, schedule: Q04DX002 (ip), vehicle: Klucel (hydroxypropylcellulose) (HPC) 89 % of control

Cc1ccccc1CO
inactive: [7] 97 % of control | [1] 97 % of control | [2] 97 % of control | [3] 100 % of control

CC1=C(/C=C/C(C)=C/C=C/C(C)=C/C(=O)O)C(C)(C)CCC1
inactive: endpoint: mean survival time, dose: 88.0 mg/kg/injection, schedule: Q01DX009 (ip), vehicle: steriod suspending solution 89 % of control | [8] 100 % of control | endpoint: mean survival time, dose: 200.0 mg/kg/injection, schedule: Q01DX001 (sc), vehicle: steriod suspending solution 104 % of control | [9] 94 % of control | endpoint: mean survival time, dose: 400.0 mg/kg/injection, schedule: Q01DX001 (sc), vehicle: steriod suspending solution 98 % of control | endpoint: mean survival time, dose: 400.0 mg/kg/injection, schedule: Q01DX009 (ip), vehicle: saline with Tween-80 91 % of control | endpoint: median survival time, dose: 25.0 mg/kg/injection, schedule: Q01DX009 (ip), vehicle: other 111 % of control | endpoint: median survival time, dose: 50.0 mg/kg/injection, schedule: Q01DX009 (ip), vehicle: other 100 % of control | endpoint: median survival time, dose: 100.0 mg/kg/injection, schedule: Q01DX009 (ip), vehicle: other 100 % of control | endpoint: median survival time, dose: 200.0 mg/kg/injection, schedule: Q01DX009 (ip), vehicle: other 100 % of control

CN(C)CCN=C(Nc1ccccn1)Nc1ccccn1
inactive: endpoint: mean survival time, dose: 12.5 mg/kg/injection, schedule: Q01DX001 (ip), vehicle: saline 113 % of control | endpoint: mean survival time, dose: 25.0 mg/kg/injection, schedule: Q01DX001 (ip), vehicle: saline 104 % of control | endpoint: mean survival time, dose: 25.0 mg/kg/injection, schedule: Q01DX009 (ip), vehicle: saline 110 % of control | endpoint: mean survival time, dose: 25.0 mg/kg/injection, schedule: Q04DX003 (ip), vehicle: saline 100 % of control | [7] 113 % of control | endpoint: mean survival time, dose: 50.0 mg/kg/injection, schedule: Q01DX009 (ip), vehicle: saline 100 % of control | endpoint: mean survival time, dose: 50.0 mg/kg/injection, schedule: Q04DX003 (ip), vehicle: saline 95 % of control | [1] 97 % of control | [10] 97 % of control | endpoint: mean survival time, dose: 100.0 mg/kg/injection, schedule: Q04DX003 (ip), vehicle: saline 113 % of control

CC12CCC(=O)C=C1CCC1C2CCC2(C)C1CCC2[N+](C)(C)C (stereo not drawn)
inactive: endpoint: mean survival time, dose: 75.0 mg/kg/injection, schedule: Q01DX001 (ip), vehicle: other 108 % of control

N#CC(Cc1ccccc1)C(=O)O (stereo not drawn)
inactive: endpoint: mean survival time, dose: 50.0 mg/kg/injection, schedule: Q01DX Z (ip), vehicle: saline 106 % of control | endpoint: mean survival time, dose: 100.0 mg/kg/injection, schedule: Q01DX Z (ip), vehicle: saline 102 % of control | endpoint: mean survival time, dose: 200.0 mg/kg/injection, schedule: Q01DX Z (ip), vehicle: saline 91 % of control

c1ccc(Cc2[nH]c3ccccc3c2-c2ccccc2)cc1
inactive: [8] 93 % of control | endpoint: mean survival time, dose: 100.0 mg/kg/injection, schedule: Q04DX002 (ip), vehicle: saline with Tween-80 109 % of control | [9] 87 % of control | endpoint: mean survival time, dose: 200.0 mg/kg/injection, schedule: Q04DX002 (ip), vehicle: saline with Tween-80 100 % of control | endpoint: mean survival time, dose: 400.0 mg/kg/injection, schedule: Q04DX002 (ip), vehicle: saline with Tween-80 90 % of control

CC(CO)(CO)N=Cc1ccccc1O.CC(CO)(CO)N=Cc1ccccc1O.[Co]
inactive: [7] 108 % of control | [1] 97 % of control | [2] 106 % of control

Clc1ccc(C#Cc2ccc(Cl)cc2)cc1
inactive: endpoint: mean survival time, dose: 6.25 mg/kg/injection, schedule: Q01DX009 (ip), vehicle: saline with Tween-80 103 % of control | endpoint: mean survival time, dose: 12.5 mg/kg/injection, schedule: Q01DX009 (ip), vehicle: saline with Tween-80 103 % of control

C/C(=N\Nc1nc2ccccc2s1)c1ccc2c(c1)Sc1ccccc1O2
inactive: endpoint: mean survival time, dose: 75.0 mg/kg/injection, schedule: Q04DX003 (ip), vehicle: saline 87 % of control | endpoint: mean survival time, dose: 150.0 mg/kg/injection, schedule: Q04DX003 (ip), vehicle: saline 90 % of control

CCOC(=O)C(C)P(=O)(OCC)OCC (stereo not drawn)
inactive: [10] 112 % of control | endpoint: mean survival time, dose: 200.0 mg/kg/injection, schedule: Q01DX009 (ip), vehicle: saline 104 % of control | endpoint: mean survival time, dose: 400.0 mg/kg/injection, schedule: Q01DX009 (ip), vehicle: saline 109 % of control

O=C1NS(=O)(=O)CS(=O)(=O)N1
inactive: [1] 108 % of control | [2] 104 % of control | [3] 101 % of control

COc1ccc(NCc2ccccc2C#N)c(OC)c1
inactive: [11] 103 % of control | [12] 108 % of control | endpoint: mean survival time, dose: 400.0 mg/kg/injection, schedule: Q04DX003 (ip), vehicle: Klucel (hydroxypropylcellulose) (HPC) 103 % of control

CCCCCC(/C=C/C1C=CC(=O)C1C/C=C/CCCC(=O)OC)OC(C)=O (stereo not drawn)
inactive: [8] 100 % of control | [9] 97 % of control

Cc1n(CCBr)c([N+](=O)[O-])c[n+]1C1N=C(c2ccccc2)c2cc(Cl)ccc2NC1=O (stereo not drawn)
inactive: [11] 101 % of control | [12] 94 % of control

N#CCC(N)=C(C#N)C#N
inactive: [4] 94 % of control | [6] 94 % of control | [5] 103 % of control

Cc1ccc(NC(=O)N(CCO)N=O)cc1
inactive: endpoint: mean survival time, dose: 12.5 mg/kg/injection, schedule: Q01DX001 (ip), vehicle: carboxymethylcellulose (CMC) 110 % of control | endpoint: mean survival time, dose: 25.0 mg/kg/injection, schedule: Q01DX001 (ip), vehicle: carboxymethylcellulose (CMC) 105 % of control | endpoint: mean survival time, dose: 50.0 mg/kg/injection, schedule: Q01DX001 (ip), vehicle: carboxymethylcellulose (CMC) 103 % of control and 108 % of control | [4] 100 % of control

Source: PubChem BioAssay AID248 (DTP/NCI, 2004)
